Literature values, collected in US20250312247A1, “OXYGEN GENERATING FACE MASKS” (DERMOQ, INC., priority 2018, published 2025).

Conditions: topically applied dissolved oxygen, transcutaneous

- depth of penetration through human skin: > 700 μm
SMILES: O=O [dissolved oxygen, oxygen]
